Measured values as given in ChEMBL document CHEMBL1201862, “PubChem BioAssay data set” (2004).
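Each compound was tested at five concentrations against cells in 96-well plates for 48 hours. Here, GI50 denotes the concentration required for 50% inhibition of growth.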 Active and inactive are the calls of the source. Rule as the data show it: active = GI50 up to about 1.1 µM and inactive = higher.

Tests used:
Experiment in all cases: growth of human tumour cells (NCI), 48 h
ACHN = tested on: ACHN
RPMI-8226 = tested on: RPMI-8226
CCRF-CEM = tested on: CCRF-CEM
SW-620 = tested on: SW-620
SNB-75 = tested on: SNB-75
SN12C = tested on: SN12C
SK-MEL-2 = tested on: SK-MEL-2
RXF 393 = tested on: RXF 393
NCI/ADR-RES = tested on: NCI/ADR-RES
TK-10 = tested on: TK-10
OVCAR-8 = tested on: OVCAR-8
MCF7 = tested on: MCF7
NCI-H23 = tested on: NCI-H23
BT-549 = tested on: BT-549
COLO 205 = tested on: COLO 205
DLD-1 = tested on: DLD-1
SNB-19 = tested on: SNB-19
HCT-15 = tested on: HCT-15
UO-31 = tested on: UO-31
KM12 = tested on: KM12

SMILES	GI50 (ACHN)	GI50 (RPMI-8226)	GI50 (CCRF-CEM)	GI50 (SW-620)	GI50 (SNB-75)	GI50 (SN12C)	GI50 (SK-MEL-2)	GI50 (RXF 393)	GI50 (NCI/ADR-RES)	GI50 (TK-10)	GI50 (OVCAR-8)	GI50 (MCF7)	GI50 (NCI-H23)	GI50 (BT-549)	GI50 (COLO 205)	GI50 (DLD-1)	GI50 (SNB-19)	GI50 (HCT-15) [µM]	GI50 (UO-31)	GI50 (KM12)
Cc1nc(-n2nc(-c3ccccc3)cc2-c2ccccc2)sc1C(=O)/C=C/c1ccc([N+](=O)[O-])cc1	26.5 µM (inactive)	10.5 µM (inactive)	14 µM (inactive)	21.4 µM (inactive)	2.69 µM (inactive)	29.1 µM (inactive)	43.1 µM (inactive)	16.7 µM (inactive)	17.2 µM (inactive)	41.5 µM (inactive)	17.7 µM (inactive)	5.74 µM (inactive)	18.4 µM (inactive)	13.2 µM (inactive)	24.4 µM (inactive)	15.3 µM (inactive)	24.2 µM (inactive)	14	14 µM (inactive)	9.29 µM (inactive)
O=P(NC12CC3CC(CC(C3)C1)C2)(N1CC1)N1CC1	4.67 µM (inactive)	> 66.1 µM (inactive)	7.24 µM (inactive)	> 86.5 µM (inactive)	22.4 µM (inactive)	10.5 µM (inactive)	> 100 µM (inactive)	15.4 µM (inactive)	53 µM (inactive)	> 100 µM (inactive)	43 µM (inactive)	9.71 µM (inactive)	6.05 µM (inactive)	> 100 µM (inactive)	> 100 µM (inactive)	80.5 µM (inactive)	17.1 µM (inactive)	> 68.5	30.5 µM (inactive)	> 100 µM (inactive)
